Experimental data as given in publication PMC12297997, “Differential Emodepside Efficacy in Drug-Resistant and Drug-Susceptible Ancylostoma caninum Highlights Variability in Potassium Channel Activity” (Tropical Medicine and Infectious Disease, 2025).
Read-outs that look alike come from different tables or passages of the source.

Columns and labels:
[1] = test system: Ancylostoma caninum L3, drug-susceptible (WMD) isolate; assay: In vitro L3 larval survival assay, drug-susceptible WMD isolate; format: cell-based
Procedure: (§1) The wild-type (WMD) and triple-anthelmintic-resistant (BCR) isolates of A. caninum used in this study have been previously described. […] Both isolates were maintained in beagles according to established protocols.
(§2) Stock solutions of pyrantel, ivermectin, and emodepside were prepared in appropriate solvent mixtures of DMSO and BU buffer (50 mM Na2HPO4, 22 mM KH2PO4, 70 mM NaCl, pH 6.8). To account for solubility differences, pyrantel was prepared in 20% DMSO, ivermectin in 4% DMSO, and emodepside in 25% DMSO. Penitrem A was dissolved in 100% DMSO to make a 500 µM stock solution. A vehicle control solution was also prepared for each drug, containing the maximum DMSO concentration used in the stock solutions to ensure that solvent effects across treatments were adequately controlled.
(§3) Infective A. caninum L3 were collected from coproculture at least 7 days post-culture using a modified Baermann method and stored in BU in a 50 mL culture flask at room temperature for up to four weeks prior to use. The survival assay to evaluate the response of A. caninum L3 to various anthelmintics was adapted from a previously established motility assessment study.
(§4) Prior to use, L3 were surface sterilized by incubation in 1% (v/v) HCl for 30 min, followed by two washes with sterile BU buffer. The sterilized larvae were resuspended in BU to a concentration of 75 L3 per 90 µL. Larvae were transferred in aliquots of 90 µL to individual wells in a 96-well plate, and 10 µL of the appropriate drug or control solution was added to each well, bringing the final volume to 100 µL. Plates were incubated at room temperature in the dark for 24 h.
(§5) Following incubation, survival was assessed by adding 50 microliters of 50° C water to each well immediately before counting. […] For each well, the total number of living and dead L3 were counted, and percent survival was calculated as below:(1) Survival (%)=[…]
(§6) Microsoft Excel was used to normalize raw survival percentages to their respective controls and calculate standard deviation for each condition. Statistical analysis was performed using GraphPad Prism (ver. 10, GraphPad Software, La Jolla, CA, USA). Using the mean, standard deviation, and sample size calculated in Excel, multiple unpaired t-tests were performed to determine the individual variance in means between WMD and BCR.

[2] = test system: Ancylostoma caninum L3, triple-anthelmintic-resistant (BCR) isolate; assay: In vitro L3 larval survival assay, triple-anthelmintic-resistant BCR isolate; format: cell-based; details: for Difference in mean survival between BCR and WMD: BCR versus WMD L3, across all tested concentrations (4–40 µg/mL), two-tailed unpaired t-test, p < 0.0001
Procedure: as §1, §2, §3, §4, §5, §6

[3] = cited from earlier work; for Corresponding Cmax: po
MADR A. caninum = test system: MADR A. caninum; parameters: method as in PMID 36520649; details: dogs infected with MADR A. caninum; cited from earlier work
[4] = stated without reference; cited from earlier work
[5] = test system: Ancylostoma caninum L3, drug-susceptible (WMD) isolate; assay: Emodepside + penitrem A survival assay (SLO-1 modulation), WMD isolate; format: cell-based; details: 0.25 µM penitrem A + emodepside 7.5 µg/mL, 24 h, mean ± SD
Procedure: as §4, §5
(§7) To further investigate the specific mechanism of emodepside action, the SLO-1 channel inhibitor penitrem A was co-incubated with emodepside. The concentration of emodepside was kept constant (7.5 µg/mL) while that of penitrem A was titrated from 1 µM to 0.05 µM. […] Survival was assessed as above.
(§8) Microsoft Excel was used to normalize raw survival percentages to their respective controls and calculate standard deviation for each condition. […] Using the mean, standard deviation, and sample size calculated in Excel, multiple unpaired t-tests were performed to determine the individual variance in means between WMD and BCR.

[6] = test system: Ancylostoma caninum L3, triple-anthelmintic-resistant (BCR) isolate; assay: Emodepside + penitrem A survival assay (SLO-1 modulation), BCR isolate; format: cell-based; details: 0.25 µM penitrem A + emodepside 7.5 µg/mL, 24 h, mean ± SD
Procedure: as §4, §5, §7, §8

CN1CCCN=C1/C=C/c1cccs1 [Pyrantel, pyrantel pamoate]
Percent survival of L3, normalized to vehicle control ([1]; 100 µg/mL, 24 h, room temperature, dark, mean ± SD): 43.9±13.7% | Mortality of L3 ([1]; 10–50 µg/mL, 24 h): almost no mortality | Percent survival of L3, normalized to vehicle control ([2]; BCR L3, 100 µg/mL, 24 h, room temperature, dark, mean ± SD, difference to WMD not significant (p = 0.054)): 59.2±10.4% | Mortality of L3 ([2]; BCR L3, 10–50 µg/mL, 24 h): almost no mortality | Cmax ([3]; in vivo, 100 mg/kg): 110 ng/mL | Corresponding Cmax ([3]; in vivo): 110 ng/mL

emodepside
Percent survival of L3, normalized to vehicle control ([1]; 7.5 µg/mL, 24 h, mean ± SD): 13.1% ± 4.1 | Percent survival of L3, normalized to vehicle control ([1]; 30 µg/mL (maximum dose tested), 24 h, mean ± SD): 3.4% ± 3.3 | IC50 (nonlinear regression of percent survival vs log concentration) ([1]; 24 h survival): 2.81 µg/mL | Surviving L3 ([2]; BCR L3, 30 µg/mL (maximum dose tested), 24 h): none | IC50 (nonlinear regression of percent survival vs log concentration) ([2]; BCR L3, 24 h survival): 1.77 µg/mL | Percent survival of L3 ([2]; BCR L3, starting at 7.5 µg/mL, 24 h): killed all BCR larvae | Difference in percent survival between WMD and BCR ([2]; WMD versus BCR L3, 3 µg/mL (greatest difference)): 21.8±4.4 | Greater effectiveness than drugs from other classes in reducing fecal egg count (MADR A. caninum): at least 50% | Corresponding Cmax ([3]; in vivo): 37 ng/mL

ivermectin
Normalized survival of L3 ([1]; low dose 4 µg/mL, 24 h, room temperature, dark, mean ± SD): 14.9±9.7% | Normalized survival of L3 ([2]; BCR L3, low dose 4 µg/mL, 24 h, room temperature, dark, mean ± SD): 54.2±11.4% | Difference in mean survival between BCR and WMD [2]: 39.0 ± 3.0% | Difference in mean survival between BCR and WMD ([2]; listed as ivermectin): approximately 40% | Aqueous solubility [4]: < 10 µg/mL | Cmax ([3]; typical therapeutic dose 150–200 mg/kg, single oral administration): 38 to 46 ng/mL

penitrem A
Percent survival of L3 co-incubated with emodepside [5]: 29.8% ± 11.5 | Percent survival of L3 co-incubated with emodepside [6]: 78.2% ± 13.8
